Test results from patent publication US20080009500A1, “Alpha-helix mimetics and methods relating to the treatment of fibrotic disorders” (priority 2005, published 2008).

Tests used:
S100A4 = experiment: RT-PCR for S100A4 in bleomycin treated mice; format: in vivo; conditions: 5 mgs/Kg/day s.c.
From the text: (§1) FIGS. 16 and 17 show RT-PCR data for S100A4 (FIG. 16) and collagen1A2 (FIG. 17), which are increased in the bleomycin treated mice (treated with saline control).

collagen1A2 = experiment: RT-PCR for collagen1A2 in bleomycin treated mice; format: in vivo; conditions: 5 mgs/Kg/day s.c.
From the text: as §1

Aquaporin 5 = Aquaporin 5 immunostaining of lung tissue in the bleomycin animal model; format: in vivo, mice; conditions: bleomycin and ICG-001 vs bleomycin alone
Experimental: The aquaporins are water channels expressed in a variety of cell types. Aquaporin 5 is involved in the transportation of water across the apical surface of the alveolar epithelium and the epithelia of the submucosal glands in the upper airway and nasopharynx. (Krane, C. M., P.N.A.S. 98:14192-4, 2001; Yang, F. J. Biol. Chem. 278:32173-80, 2003). Because aquaporin 5 is a marker of Type 1 (differentiated) lung epithelium, its expression was assayed in lung tissue treated with bleomycin (FIG. 22A), bleomycin and ICG-001 (FIG. 22B), and saline (FIG. 22C), using the animal model as described in Example 2 (FIG. 15), and immunostaining with an antibody specific for Aquaporin 5.

[1] = test system: bleomycin induced fibrosis in C57/B16 mice; experiment: Murine model of bleomycin induced pulmonary fibrosis, lung sections stained for collagen (trichrome), body weight, survival; format: in vivo
Experimental: Murine models of bleomycin induced fibrosis have been developed in order to study fibrotic disease progression.
(§2) Using this murine model of pulmonary fibrosis in transgenic Bat-Gal mice, ICG-001 (5 mg/Kg/day, administered via minipump) blocked >95% of bleomycin-induced TCF/β-catenin transcription.
There is an absence of airway epithelium in lower left compared to upper left (see arrow heads) and extensive collagen deposition (lower left). On the sixth day, either saline (upper right) or ICG-001 (5 mgs/Kg/day) was administered for 10 days after which the mice were sacrificed and sectioned. Of interest is the upper right (saline treatment) showing lack of normal airway epithelialization, extensive collagen deposition and intra-airway hypercellularity (fibroblasts and inflammatory influx).
The procedures were performed using the animal model as described in Example 2 (FIG. 15), and the sectioned lungs were stained for collagen.

[2] = test system: TCF/β-catenin transcription; experiment: Bleomycin model in Bat-Gal transgenic mice, X-Gal staining of lung sections (TCF/catenin-driven beta-galactosidase read-out); format: in vivo
Experimental: as §2
These mice have a Beta-Galactosidase transgene driven by a TCF/Catenin driven promoter (i.e. a read out for activated Wnt/catenin signaling). The mice were given intratracheal saline or bleomycin and either treated with ICG-001 (5 mgs/Kg/day subcutaneously) or saline as vehicle control. The mice were sacrificed and the lungs sectioned and stained with X-Gal (blue color) A) intratracheal bleo+saline. B) intracheal bleo+ICG-001 C) saline +saline.
The dose was selected because ICG-001 reduces TCF/β-Catenin driven β-Galactosidase expression >95% at 5 mgs/Kg/day.

IPF patient fibroblasts = experiment: Western blots for S100A4 and E-Cadherin on whole cell lysates of cultured IPF fibroblasts; format: cell-based, human
Experimental: Western blots for S100A4 (also know as FSP-1 or fibroblast specific protein-1) and E-Cadherin were performed on whole cell lysates (FIG. 20).

[3] = C57/B16 mice, bleomycin 5 days, then 5 mgs/Kg/day for 10 days
[4] = bleomycin and ICG-001 treatment
[5] = IPF patient fibroblasts, RPMI 1640+10% FBS, 2 days

Question: Which results are given for `O=C1[C@H](Cc2ccc(O)cc2)N2C(=O)CCN(C(=O)NCc3ccccc3)[C@H]2CN1Cc1cccc2ccccc12` [ICG-001]?
Answer: S100A4 message (RT-PCR) (S100A4): reduced essentially to negative control; collagen1A2 message (RT-PCR) (collagen1A2): reduced essentially to negative control; aquaporin 5 expression (immunostaining) (Aquaporin 5): greatly increased; mortality ([1]; 5 mg/Kg/day): reduced mortality; disease progression ([1]; 5 mg/Kg/day, judged by mortality, histopathology and endogenous gene expression): not only halted but reversed disease progression; airway appearance in trichrome-stained lung sections [1, 3]: essentially normal; body weight [1, 3]: regained normal body weight; collagen levels in lung sections [1, 3]: normal collagen levels; survival ([1]; C57/B16 mice, bleomycin 5 days, then 5 mgs/Kg/day for 10 days, untreated controls did not survive): survived; alveolar fibrosis (lungs stained for collagen) [1, 4]: prevented alveolar fibrosis; interstitial fibrosis (lungs stained for collagen) [1, 4]: prevented interstitial fibrosis; fibrosis ([1]; over the 25 days of treatment): reversed fibrosis; reduction of TCF/β-Catenin driven β-Galactosidase expression ([2]; 5 mgs/Kg/day): > 95%; bleomycin-induced TCF/β-catenin transcription blocked ([2]; transgenic Bat-Gal mice, 5 mg/Kg/day via minipump): > 95%; S100A4 expression (whole cell lysates) (IPF patient fibroblasts; ATCC IPF cells, RPMI1640+10% FBS, 2 days): decreased S100A4 expression; E-cadherin expression at the mRNA level (IPF patient fibroblasts; IPF patient fibroblasts): also true at the mRNA level; E-cadherin expression (Western blot, whole cell lysates) (IPF patient fibroblasts; [5]): increased E-cadherin expression; S100A4 expression (Western blot, whole cell lysates) (IPF patient fibroblasts; [5]): decreased S100A4 expression
